Data taken from paper doi:10.1101/2020.06.11.145995v1 (biorxiv, 2020).
Read-outs that look alike come from different tables or passages of the source.

Columns and labels:
Assay in all cases: biochemical
LZK = LZK (Homo sapiens, UniProt O43283)
MEK6 = MEK6 (Homo sapiens, UniProt P52564)
AKT1 = AKT1 (Homo sapiens, UniProt P31749)
CAMK1 = CAMK1 (Homo sapiens, UniProt Q14012)
MAP4K4 = MAP4K4 (Homo sapiens, UniProt O95819)
CDK2 = CDK2 (Homo sapiens, UniProt P24941)
ACVR2A = ACVR2A (Homo sapiens, UniProt P27037)
CDKL5 = CDKL5 (Homo sapiens, UniProt O76039)
LRRK2(G2019S) = LRRK2(G2019S) (Homo sapiens, UniProt Q5S007, G2019S)
MST3 = MST3 (Homo sapiens, UniProt Q9Y6E0)
ACVR1 = ACVR1 (Homo sapiens, UniProt Q04771)
GRK1 = GRK1 (Homo sapiens, UniProt Q15835)
FLT3(D835H) = FLT3(D835H) (Homo sapiens, UniProt P36888, D835H)
BMPR1B = BMPR1B (Homo sapiens, UniProt O00238)
ADCK3 = ADCK3 (Homo sapiens, UniProt Q8NI60)
LRRK2 = LRRK2 (Homo sapiens, UniProt Q5S007)
FES = FES (Homo sapiens, UniProt P07332)
MAP3K2 = MAP3K2 (Homo sapiens, UniProt Q9Y2U5)
LCK = LCK (Homo sapiens, UniProt P06239)
GRK4 = GRK4 (Homo sapiens, UniProt P32298)
ASK1 = ASK1 (Homo sapiens, UniProt Q99683)
ICK = ICK (Homo sapiens, UniProt Q9UPZ9)
CLK3 = CLK3 (Homo sapiens, UniProt P49761)
MLK1 = MLK1 (Homo sapiens, UniProt P80192)
MAP4K5 = MAP4K5 (Homo sapiens, UniProt Q9Y4K4)
ITK = ITK (Homo sapiens, UniProt Q08881)
CDC2L2 = CDC2L2 (Homo sapiens, UniProt Q9UQ88)
FLT1 = FLT1 (Homo sapiens, UniProt P17948)
CAMK4 = CAMK4 (Homo sapiens, UniProt Q16566)
FLT4 = FLT4 (Homo sapiens, UniProt P35916)
[1] = read-out: CPT-1-70-1 (1uM) % control
[2] = read-out: HYJ-2-002-1 (1uM) % control

Sequence of GRK4 (P32298 whole entry): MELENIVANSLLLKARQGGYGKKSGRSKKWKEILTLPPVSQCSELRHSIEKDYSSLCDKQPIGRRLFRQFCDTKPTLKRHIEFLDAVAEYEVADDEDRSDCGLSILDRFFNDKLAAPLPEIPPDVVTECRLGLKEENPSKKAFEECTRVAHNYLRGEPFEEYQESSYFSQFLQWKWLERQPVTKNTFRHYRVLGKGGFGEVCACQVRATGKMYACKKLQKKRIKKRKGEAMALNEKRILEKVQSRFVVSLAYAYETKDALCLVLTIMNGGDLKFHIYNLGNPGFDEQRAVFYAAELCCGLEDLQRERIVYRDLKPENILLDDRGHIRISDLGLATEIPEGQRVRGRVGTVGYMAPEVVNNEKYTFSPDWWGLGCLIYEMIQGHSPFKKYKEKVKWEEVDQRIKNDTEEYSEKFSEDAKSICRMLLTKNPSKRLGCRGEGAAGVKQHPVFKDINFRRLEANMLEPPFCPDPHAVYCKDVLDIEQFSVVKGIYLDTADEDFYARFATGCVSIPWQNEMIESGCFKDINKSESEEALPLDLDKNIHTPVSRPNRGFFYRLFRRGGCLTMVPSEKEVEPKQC
Sequence of ITK (Q08881 whole entry): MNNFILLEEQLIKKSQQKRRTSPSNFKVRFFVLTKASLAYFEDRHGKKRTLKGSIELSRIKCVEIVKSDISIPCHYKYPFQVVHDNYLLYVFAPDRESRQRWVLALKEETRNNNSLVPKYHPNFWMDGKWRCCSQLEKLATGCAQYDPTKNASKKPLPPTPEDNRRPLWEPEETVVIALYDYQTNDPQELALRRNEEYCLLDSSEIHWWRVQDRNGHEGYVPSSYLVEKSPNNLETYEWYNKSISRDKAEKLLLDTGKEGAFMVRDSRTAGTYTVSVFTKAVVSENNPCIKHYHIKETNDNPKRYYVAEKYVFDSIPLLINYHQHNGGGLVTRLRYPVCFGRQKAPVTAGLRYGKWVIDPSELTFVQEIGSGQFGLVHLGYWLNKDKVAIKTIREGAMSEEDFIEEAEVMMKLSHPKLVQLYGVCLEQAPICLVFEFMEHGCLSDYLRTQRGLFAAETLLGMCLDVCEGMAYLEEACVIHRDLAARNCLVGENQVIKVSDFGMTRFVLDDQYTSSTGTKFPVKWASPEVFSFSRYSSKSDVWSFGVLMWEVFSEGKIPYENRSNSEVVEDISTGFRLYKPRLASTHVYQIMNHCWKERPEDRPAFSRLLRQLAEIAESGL
Sequence of ASK1 (Q99683 whole entry): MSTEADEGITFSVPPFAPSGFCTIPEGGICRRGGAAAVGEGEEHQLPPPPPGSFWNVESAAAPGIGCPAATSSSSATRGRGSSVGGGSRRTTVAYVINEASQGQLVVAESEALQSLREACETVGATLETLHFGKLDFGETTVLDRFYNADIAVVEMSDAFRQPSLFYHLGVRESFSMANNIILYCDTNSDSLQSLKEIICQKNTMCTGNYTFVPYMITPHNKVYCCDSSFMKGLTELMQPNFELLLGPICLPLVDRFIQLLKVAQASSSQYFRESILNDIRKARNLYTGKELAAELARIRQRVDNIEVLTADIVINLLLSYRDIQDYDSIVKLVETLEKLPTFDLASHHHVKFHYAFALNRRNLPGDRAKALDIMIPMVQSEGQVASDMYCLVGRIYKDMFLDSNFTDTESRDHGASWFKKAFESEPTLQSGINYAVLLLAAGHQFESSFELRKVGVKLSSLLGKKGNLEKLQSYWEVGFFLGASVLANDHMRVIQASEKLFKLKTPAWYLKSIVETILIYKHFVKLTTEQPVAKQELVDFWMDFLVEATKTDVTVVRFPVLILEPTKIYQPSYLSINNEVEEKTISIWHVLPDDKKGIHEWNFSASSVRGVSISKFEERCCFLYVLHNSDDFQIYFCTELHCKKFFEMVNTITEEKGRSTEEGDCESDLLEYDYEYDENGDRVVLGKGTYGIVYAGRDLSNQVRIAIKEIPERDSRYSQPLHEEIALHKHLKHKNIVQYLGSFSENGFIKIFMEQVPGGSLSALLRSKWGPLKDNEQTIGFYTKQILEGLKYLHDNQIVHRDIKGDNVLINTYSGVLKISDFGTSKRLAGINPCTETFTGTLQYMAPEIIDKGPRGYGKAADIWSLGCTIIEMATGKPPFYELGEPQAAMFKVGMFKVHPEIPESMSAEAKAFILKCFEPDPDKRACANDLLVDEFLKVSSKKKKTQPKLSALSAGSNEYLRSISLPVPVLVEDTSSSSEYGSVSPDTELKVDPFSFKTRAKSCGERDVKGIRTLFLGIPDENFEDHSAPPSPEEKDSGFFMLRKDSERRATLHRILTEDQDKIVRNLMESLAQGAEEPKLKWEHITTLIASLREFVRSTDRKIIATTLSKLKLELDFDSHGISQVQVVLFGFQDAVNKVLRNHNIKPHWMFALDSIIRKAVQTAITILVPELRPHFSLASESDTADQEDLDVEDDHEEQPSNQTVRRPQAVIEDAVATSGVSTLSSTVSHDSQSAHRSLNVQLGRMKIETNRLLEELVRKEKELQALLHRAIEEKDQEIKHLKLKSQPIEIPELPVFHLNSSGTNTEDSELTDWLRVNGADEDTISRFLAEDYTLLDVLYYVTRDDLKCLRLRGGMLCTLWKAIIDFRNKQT
Sequence of MAP4K5 (Q9Y4K4 whole entry): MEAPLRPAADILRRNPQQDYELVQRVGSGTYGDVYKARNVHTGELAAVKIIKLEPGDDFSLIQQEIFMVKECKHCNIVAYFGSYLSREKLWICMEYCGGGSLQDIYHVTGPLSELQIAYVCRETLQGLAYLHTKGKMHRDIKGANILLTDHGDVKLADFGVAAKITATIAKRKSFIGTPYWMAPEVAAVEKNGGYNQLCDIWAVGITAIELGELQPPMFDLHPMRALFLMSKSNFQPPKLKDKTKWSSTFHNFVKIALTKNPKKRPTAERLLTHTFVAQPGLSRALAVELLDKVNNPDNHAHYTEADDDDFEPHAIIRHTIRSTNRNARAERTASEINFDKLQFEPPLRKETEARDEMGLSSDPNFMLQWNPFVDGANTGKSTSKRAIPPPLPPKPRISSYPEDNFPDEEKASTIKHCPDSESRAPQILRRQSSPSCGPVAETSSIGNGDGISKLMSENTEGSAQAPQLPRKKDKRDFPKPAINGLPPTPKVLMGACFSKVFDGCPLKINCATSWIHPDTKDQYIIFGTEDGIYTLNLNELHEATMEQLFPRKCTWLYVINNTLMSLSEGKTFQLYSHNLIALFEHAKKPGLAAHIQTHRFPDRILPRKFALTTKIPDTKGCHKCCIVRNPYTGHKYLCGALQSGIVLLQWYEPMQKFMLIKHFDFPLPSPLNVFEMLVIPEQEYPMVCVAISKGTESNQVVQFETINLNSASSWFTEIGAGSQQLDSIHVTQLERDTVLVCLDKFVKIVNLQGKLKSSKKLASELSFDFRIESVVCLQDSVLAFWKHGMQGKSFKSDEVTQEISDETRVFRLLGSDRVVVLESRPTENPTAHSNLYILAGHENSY
Sequence of BMPR1B (O00238 whole entry): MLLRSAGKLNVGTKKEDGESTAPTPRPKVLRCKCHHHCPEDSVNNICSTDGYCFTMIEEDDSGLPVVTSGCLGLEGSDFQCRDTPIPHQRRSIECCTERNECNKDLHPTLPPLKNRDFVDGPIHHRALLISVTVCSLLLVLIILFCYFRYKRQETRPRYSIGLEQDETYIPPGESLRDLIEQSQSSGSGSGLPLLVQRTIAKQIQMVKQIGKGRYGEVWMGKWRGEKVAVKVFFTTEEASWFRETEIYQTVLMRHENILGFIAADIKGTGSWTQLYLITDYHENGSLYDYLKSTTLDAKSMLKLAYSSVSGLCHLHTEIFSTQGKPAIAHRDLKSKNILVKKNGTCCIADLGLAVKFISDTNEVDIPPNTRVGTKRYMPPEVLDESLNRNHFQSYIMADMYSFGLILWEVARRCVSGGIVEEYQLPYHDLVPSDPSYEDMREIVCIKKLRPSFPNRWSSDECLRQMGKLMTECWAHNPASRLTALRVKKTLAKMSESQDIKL
Sequence of CAMK1 (Q14012 whole entry): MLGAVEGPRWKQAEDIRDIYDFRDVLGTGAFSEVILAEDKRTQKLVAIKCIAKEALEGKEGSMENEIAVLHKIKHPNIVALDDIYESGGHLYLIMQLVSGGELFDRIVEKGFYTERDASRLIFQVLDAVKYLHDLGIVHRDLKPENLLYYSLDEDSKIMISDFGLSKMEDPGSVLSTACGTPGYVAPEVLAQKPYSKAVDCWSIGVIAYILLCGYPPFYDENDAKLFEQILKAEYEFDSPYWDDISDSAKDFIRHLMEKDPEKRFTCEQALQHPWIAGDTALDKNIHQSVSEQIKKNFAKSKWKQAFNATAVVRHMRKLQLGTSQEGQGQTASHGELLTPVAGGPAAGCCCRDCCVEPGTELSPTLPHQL
Sequence of CDC2L2 (Q9UQ88 whole entry): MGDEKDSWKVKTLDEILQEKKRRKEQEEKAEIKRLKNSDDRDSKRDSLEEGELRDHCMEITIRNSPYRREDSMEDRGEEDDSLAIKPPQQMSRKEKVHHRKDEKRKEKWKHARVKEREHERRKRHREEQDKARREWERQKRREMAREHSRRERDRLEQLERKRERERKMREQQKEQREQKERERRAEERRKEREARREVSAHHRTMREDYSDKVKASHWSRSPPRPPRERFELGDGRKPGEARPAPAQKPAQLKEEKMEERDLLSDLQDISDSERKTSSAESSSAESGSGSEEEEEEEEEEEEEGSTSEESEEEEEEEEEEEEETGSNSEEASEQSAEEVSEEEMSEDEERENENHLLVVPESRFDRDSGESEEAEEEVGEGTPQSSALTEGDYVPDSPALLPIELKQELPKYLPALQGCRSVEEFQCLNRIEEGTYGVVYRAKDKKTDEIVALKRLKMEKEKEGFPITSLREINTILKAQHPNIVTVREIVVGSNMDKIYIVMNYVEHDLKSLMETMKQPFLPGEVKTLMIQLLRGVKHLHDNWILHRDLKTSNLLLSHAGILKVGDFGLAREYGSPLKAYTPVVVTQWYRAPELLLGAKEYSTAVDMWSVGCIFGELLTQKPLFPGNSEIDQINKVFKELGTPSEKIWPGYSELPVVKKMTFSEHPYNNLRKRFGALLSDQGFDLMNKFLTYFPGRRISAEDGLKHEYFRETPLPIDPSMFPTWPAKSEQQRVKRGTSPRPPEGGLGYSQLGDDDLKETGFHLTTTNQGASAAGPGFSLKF

CN1CCN(c2ccc(Nc3nc(Oc4ccc(NC(=O)CCl)cc4)c4cc[nH]c4n3)cc2)CC1 [CPT1-70-1] showed a remaining activity at 1 µM (LZK; [1]) of 73%, a remaining activity at 1 µM (MEK6; [1]) of 55% and a remaining activity at 1 µM (AKT1; [1]) of 100%. The remaining activity at 1 µM (CAMK1; [1]) was 57%, the remaining activity at 1 µM (MAP4K4; [1]) was 49% and the remaining activity at 1 µM (CDK2; [1]) was 100%. For the same compound, the remaining activity at 1 µM (ACVR2A; [1]) was 100%, the remaining activity at 1 µM (CDKL5; [1]) was 100% and the remaining activity at 1 µM (LRRK2(G2019S); [1]) was 2.6%. It also gave a remaining activity at 1 µM (MST3; [1]) of 93%, a remaining activity at 1 µM (ACVR1; [1]) of 100% and a remaining activity at 1 µM (GRK1; [1]) of 82%. It also gave a remaining activity at 1 µM (FLT3(D835H); [1]) of 10%, a remaining activity at 1 µM (BMPR1B; [1]) of 100% and a remaining activity at 1 µM (ADCK3; [1]) of 100%. The remaining activity at 1 µM (LRRK2; [1]) was 7.5%, the remaining activity at 1 µM (FES; [1]) was 73% and the remaining activity at 1 µM (MAP3K2; [1]) was 37%. The remaining activity at 1 µM (LCK; [1]) was 32%, the remaining activity at 1 µM (GRK4; [1]) was 100% and the remaining activity at 1 µM (ASK1; [1]) was 100%. It also gave a remaining activity at 1 µM (ICK; [1]) of 100%, a remaining activity at 1 µM (CLK3; [1]) of 82% and a remaining activity at 1 µM (MLK1; [1]) of 9%. For the same compound, the remaining activity at 1 µM (MAP4K5; [1]) was 25%, the remaining activity at 1 µM (ITK; [1]) was 0.85% and the remaining activity at 1 µM (CDC2L2; [1]) was 100%. The remaining activity at 1 µM (FLT1; [1]) was 54%, the remaining activity at 1 µM (CAMK4; [1]) was 100% and the remaining activity at 1 µM (FLT4; [1]) was 81%.

CCN1CCN(Cc2ccc(NC(=O)c3ccc(C)c(CCc4cnc5[nH]ccc5c4OC)c3)cc2C(F)(F)F)CC1 [HYJ-2-002-1] showed a remaining activity at 1 µM (LZK; [2]) of 78%, a remaining activity at 1 µM (MEK6; [2]) of 91% and a remaining activity at 1 µM (AKT1; [2]) of 100%. The remaining activity at 1 µM (CAMK1; [2]) was 80%, the remaining activity at 1 µM (MAP4K4; [2]) was 11% and the remaining activity at 1 µM (CDK2; [2]) was 100%. For the same compound, the remaining activity at 1 µM (ACVR2A; [2]) was 100%, the remaining activity at 1 µM (CDKL5; [2]) was 100% and the remaining activity at 1 µM (LRRK2(G2019S); [2]) was 83%. It also gave a remaining activity at 1 µM (MST3; [2]) of 76%, a remaining activity at 1 µM (ACVR1; [2]) of 100% and a remaining activity at 1 µM (GRK1; [2]) of 100%. For the same compound, the remaining activity at 1 µM (FLT3(D835H); [2]) was 7.3%, the remaining activity at 1 µM (BMPR1B; [2]) was 100% and the remaining activity at 1 µM (ADCK3; [2]) was 100%. For the same compound, the remaining activity at 1 µM (LRRK2; [2]) was 94%, the remaining activity at 1 µM (FES; [2]) was 13% and the remaining activity at 1 µM (MAP3K2; [2]) was 26%. The remaining activity at 1 µM (LCK; [2]) was 1.1%, the remaining activity at 1 µM (GRK4; [2]) was 100% and the remaining activity at 1 µM (ASK1; [2]) was 96%. It also gave a remaining activity at 1 µM (ICK; [2]) of 100%, a remaining activity at 1 µM (CLK3; [2]) of 88% and a remaining activity at 1 µM (MLK1; [2]) of 100%. For the same compound, the remaining activity at 1 µM (MAP4K5; [2]) was 16%, the remaining activity at 1 µM (ITK; [2]) was 75% and the remaining activity at 1 µM (CDC2L2; [2]) was 76%. The remaining activity at 1 µM (FLT1; [2]) was 10%, the remaining activity at 1 µM (CAMK4; [2]) was 100% and the remaining activity at 1 µM (FLT4; [2]) was 3.8%.
